Source: patent US20250034135A1, “ANTI-APOPTOTIC PROTEIN BCL-2 INHIBITOR, PHARMACEUTICAL COMPOSITION AND USES THEREOF” (HANGZHOU HEALZEN THERAPEUTICS CO., LTD., priority 2021, published 2025)

What follows are compounds tested against BCL2 (Homo sapiens (Human), UniProt P10415) (assay: Molecular level activity test of anti-apoptotic protein BCL2 (HTRF, binding to Bim peptide)). Settings: HTRF, binding of BCL2 to Bim peptide; read-out: BCL2 nM (inhibitory activity, IC50).
Method: The detection of the binding ability between anti-apoptotic protein BCL2 and pro-apoptotic protein Bim was performed using Homogeneous Time-Resolved Fluorescence technology. The reaction of this method occurred in a white shallow 384-well plate, with a total reaction volume of 10 μL. Specifically, it included 2 μL of the compound to be tested (2% DMSO), 4 μL His-tagged recombinant protein, and 4 μL Biotin-tagged BIM protein peptide. After 1 hour of reaction, 5 μL of each Anti-His and streptavidin-tagged XL665 antibody diluents diluted with a detection buffer were added. After incubating at room temperature for 4 hours, the values were read using the Envision multifunctional microplate reader to detect the effect of the compound to be tested on the binding ability of BCL2 to Bim protein peptides.

Chain of BCL2 (P10415 whole entry): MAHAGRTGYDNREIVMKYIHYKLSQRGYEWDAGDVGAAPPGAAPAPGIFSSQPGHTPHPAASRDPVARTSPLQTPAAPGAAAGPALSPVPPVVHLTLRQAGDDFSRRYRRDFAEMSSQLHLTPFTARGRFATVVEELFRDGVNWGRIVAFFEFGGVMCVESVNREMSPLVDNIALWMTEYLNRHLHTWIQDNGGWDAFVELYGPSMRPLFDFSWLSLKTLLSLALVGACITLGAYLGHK

With `CC(C)c1ccccc1[C@@H]1CCCN1C1CC2(CCN(c3cc(Oc4cnc5[nH]ccc5c4)c(C(=O)NS(=O)(=O)c4cc([N+](=O)[O-])c(NCC5(F)CCOCC5)c5occc45)cc3F)CC2)C1` [compound 102, (S)-2-((1H-pyrrolo[2,3-b]pyrid-5-yl)oxy)-5-fluoro-N-((7-(((4-fluorotetrahydro-2H-pyran-4-yl)methyl)amino)-6-nitrobenzofuran-4-yl)sulfonyl)-4-(2-(2-(2-isopropylphenyl)pyrrolidin-1-yl)-7-azaspiro[3.5]non-7-yl)benzamide] as the compound, how does the IC50 read?
The IC50 was less than 10 nM.

Which IC50 does the source give for `COc1ccc(CN2CCN(C3CC4(CCN(c5cc(Oc6cnc7[nH]ccc7c6)c(C(=O)NS(=O)(=O)c6cc([N+](=O)[O-])c(NCC7(F)CCOCC7)c7c6OCO7)cc5F)CC4)C3)[C@H](c3ccccc3C(C)C)C2)cc1` [compound 106, (R)-2-((1H-pyrrolo[2,3-b]pyrid-5-yl)oxy)-5-fluoro-N-((7-(((4-fluorotetrahydro-2H-pyran-4-yl)methyl)amino)-6-nitrobenzo[d][1,3]dioxocyclopent-4-yl)sulfonyl)-4-(2-(2-(2-isopropylphenyl)-4-(4-methoxybenzyl)piperazin-1-yl)-7-azaspiro[3.5]non-7-yl)benzamide] here?
Its IC50 is less than 10 nM.

How did the IC50 turn out when “(S)-2-((1H-pyrrolo[2,3-b]pyrid-5-yl)oxy)-N-(7-(((4-fluorotetrahydro-2H-pyran-4-yl)methyl)amino)-6-nitro-1H-benzo[d]imidazol-4-yl)sulfonyl)-4-(2-(2-(2-isopropylphenyl)pyrrolidin-1-yl)-7-azaspiro[3.5]non-7-yl)benzamide [compound 005]” was run?
Its IC50 is less than 10 nM.

With `CC(C)c1ccccc1[C@@H]1CN(Cc2ccc(F)cc2F)CCN1C1CC2(CCN(c3ccc(C(=O)NS(=O)(=O)c4cc([N+](=O)[O-])c(NCC5(F)CCOCC5)c5c4OCO5)c(Oc4cnc5[nH]ccc5c4)c3)CC2)C1` [compound 169, (R)-2-((1H-pyrrolo[2,3-b]pyrid-5-yl)oxy)-4-(2-(4-(2,4-difluorobenzyl)-2-(2-isopropylphenyl)piperazin-1-yl)-7-azaspiro[3.5]non-7-yl)-N-((7-(((4-fluorotetrahydro-2H-pyran-4-yl)methyl)amino)-6-nitrobenzo[d][1,3]dioxocyclopent-4-yl)sulfonyl)benzamide] as the compound, how does the IC50 read?
The IC50 was less than 10 nM.

For `CC(C)c1ccccc1[C@@H]1CN(Cc2cccnc2)CCN1C1CC2(CCN(c3cc(Oc4cnc5[nH]ccc5c4)c(C(=O)NS(=O)(=O)c4ccc(NC[C@H]5CC[C@](C)(O)CC5)c([N+](=O)[O-])c4)cc3F)CC2)C1` [compound 232, 2-((1H-pyrrolo[2,3-b]pyrid-5-yl)oxy)-5-fluoro-N-((4-((((1r, 4r)-4-hydroxy-4-methylcyclohexyl)methyl)amino)-3-nitrophenyl)sulfonyl)-4-(2-((R)-2-(2-isopropylphenyl)-4-(pyrid-3-ylmethyl)piperazin-1-yl)-7-azaspiro[3.5]non-7-yl)benzamide], which IC50 is on record?
The IC50 was less than 10 nM.

For `COc1ccc(CN2CCN(C3CC4(CCN(c5cc(Oc6cnc7[nH]ccc7c6)c(C(=O)NS(=O)(=O)c6ccc(NCC7(F)CCOCC7)c([N+](=O)[O-])c6)cc5F)CC4)C3)[C@H](c3ccccc3C(C)C)C2)c2c1OCCO2` [compound 206, (R)-2-((1H-pyrrolo[2,3-b]pyrid-5-yl)oxy)-5-fluoro-N-((4-(((4-fluorotetrahydro-2H-pyran-4-yl)methyl)amino)-3-nitrophenyl)sulfonyl)-4-(2-(2-(2-isopropylphenyl)-4-(8-methoxy-2,3-dihydrobenzo[b][1,4-dioxan-5-yl)methyl)piperazin-1-yl)-7-azaspiro[3.5]non-7-yl)benzamide], which IC50 is on record?
The IC50 was less than 10 nM.

Which IC50 does the source give for `COc1ccc(CN2CCN(C3CC4(CCN(c5cc(Oc6cnc7[nH]ccc7c6)c(C(=O)NS(=O)(=O)c6cc([N+](=O)[O-])c(NC[C@H]7CC[C@](C)(O)CC7)c7c6OCO7)cn5)CC4)C3)[C@H](c3ccccc3C(C)C)C2)cc1` [compound 137, 4-((1H-pyrrolo[2,3-b]pyrid-5-yl)oxy)-N-((7-((((1r, 4r)-4-hydroxy-4-methylcyclohexyl)methyl)amino)-6-nitrobenzo[d][1,3]dioxocyclopent-4-yl)sulfonyl)-6-(2-((R)-2-(2-isopropylphenyl)-4-(4-methoxybenzyl)piperazin-1-yl)-7-azaspiro[3.5]non-7-yl) nicotinamide] here?
Its IC50 is less than 10 nM.

For `COc1ccc(CN2CCN(C3CC4(CCN(c5cc(Oc6cnc7[nH]ccc7c6)c(C(=O)NS(=O)(=O)c6cc([N+](=O)[O-])c(NCC7(F)CCOCC7)c7c6OCCO7)cc5F)CC4)C3)[C@H](c3ccccc3C(C)C)C2)cc1` [compound 110, (R)-2-((1H-pyrrolo[2,3-b]pyrid-5-yl)oxy)-5-fluoro-N-((8-(((4-fluorotetrahydro-2H-pyran-4-yl)methyl)amino)-7-nitro-2,3-dihydrobenzo[b][1,4]dioxane-5yl)sulfonyl)-4-(2-(2-(2-isopropylphenyl)-4-(4-methoxybenzyl)piperazin-1-yl)-7-azaspiro[3.5]non-7-yl)benzamide], which IC50 is on record?
The IC50 was less than 10 nM.

Which IC50 does the source give for `COc1ccc(CN2CCN(C3CC4(CCN(c5cc(Oc6cnc7[nH]ccc7c6)c(C(=O)NS(=O)(=O)c6ccc(NC[C@H]7CC[C@](C)(O)CC7)c([N+](=O)[O-])c6)cc5F)CC4)C3)C(c3ccccc3C(C)C)C2)cc1` (stereo partly drawn) [compound 055, 2-((1H-pyrrolo[2,3-b]pyrid-5-yl)oxy)-5-fluoro-N-((4-((((1r,4r)-4-hydroxy-4-methylcyclohexyl)methyl)amino)-3-nitrophenyl)sulfonyl)-4-(2-(2-(2-isopropylphenyl)-4-(4-methoxybenzyl)piperazin-1-yl)-7-azaspiro[3.5]non-7-yl)benzamide] here?
The IC50 was less than 10 nM.

`CC(C)c1ccccc1[C@@H]1CCCN1C1CC2(CCN(c3cc(Oc4cnc5[nH]ccc5c4)c(C(=O)NS(=O)(=O)c4cc([N+](=O)[O-])c(NCC5(F)CCN(C(=O)CN(C)C)CC5)c5[nH]cnc45)cn3)CC2)C1` [compound 029, (S)-4-((1H-pyrrolo[2,3-b]pyrid-5-yl)oxy)-N-((7-(((1-(dimethylglycyl)-4-fluoropiperid-4-yl)methyl)amino)-6-nitro-1H-benzo[d]imidazol-4-yl)sulfonyl)-6-(2-(2-(2-isopropylphenyl)pyrrolidin-1-yl)-7-azaspiro[3.5]non-7-yl) nicotinamide] was tested. Which IC50 did it give?
Its IC50 is less than 10 nM.

With `COc1ccc(CN2CCN(C3CC4(C3)CN(c3cc(Oc5cnc6[nH]ccc6c5)c(C(=O)NS(=O)(=O)c5cc([N+](=O)[O-])c(NCC6(F)CCN(C(C)C)CC6)c6[nH]cnc56)cc3F)C4)C(c3ccccc3C(C)C)C2)cc1` (stereo not drawn) [compound 074, 2-((1H-pyrrolo[2,3-b]pyrid-5-yl)oxy)-5-fluoro-N-((7-(((4-fluoro-1-isopropylpiperid-4-yl)methyl)amino)-6-nitro-1H-benzo[d]imidazol-4-yl)sulfonyl)-4-(6-(2-(2-isopropylphenyl)-4-(4-methoxybenzyl)piperazin-1-yl)-2-azaspiro[3.3]hept-2-yl)benzamide] as the compound, how does the IC50 read?
The IC50 was less than 10 nM.

How did the IC50 turn out when `COc1ccc(CN2CCN(C3CC4(CCN(c5cc(Oc6cnc7[nH]ccc7c6)c(C(=O)NS(=O)(=O)c6cc([N+](=O)[O-])c(NCC7(F)CCOCC7)c7ocnc67)cn5)CC4)C3)[C@H](c3ccccc3C(C)C)C2)cc1` [compound 133, (R)-4-((1H-pyrrolo[2,3-b]pyridine-5-yl)oxy)-N-((7-(((4-fluorotetrahydro-2H-pyran-4-yl)methyl)amino)-6-nitrobenzo[d]oxazol-4-yl)sulfonyl)-6-(2-(2-(2-isopropylphenyl)-4-(4-methoxybenzyl)piperazin-1-yl)-7-azaspiro[3.5]non-7-yl) nicotinamide] was run?
Its IC50 is less than 10 nM.

How did the IC50 turn out when `CC(C)c1ccccc1[C@@H]1CCCN1C1CC2(CCN(c3ccc(C(=O)NS(=O)(=O)c4cc([N+](=O)[O-])c(NCC5(F)CCN(C(C)C)CC5)c5[nH]cnc45)c(N4CCCOc5nc6[nH]ccc6cc54)c3)CC2)C1` [compound 086, (S)-2-(3,4-dihydro-2H-pyrrolo[3′,2′:5,6]pyridino[2,3-b][1,4]oxazacyclohept-1 (7H)-yl)-N-((7-(((4-fluoro-1-isopropylpiperid-4-yl)methyl)amino)-6-nitro-1H-benzo[d]imidazol-4-yl)sulfonyl)-4-(2-(2-(2-isopropylphenyl)pyrrolidin-1-yl)-7-azaspiro[3.5]non-7-yl)benzamide] was run?
The IC50 was less than 10 nM.

With `CC(C)c1ccccc1[C@@H]1CN(Cc2ccc(C3CC3)cc2)CCN1C1CC2(CCN(c3cc(Oc4cnc5[nH]ccc5c4)c(C(=O)NS(=O)(=O)c4ccc(NC[C@H]5CC[C@](C)(O)CC5)c([N+](=O)[O-])c4)cc3F)CC2)C1` [compound 219, 2-((1H-pyrrolo[2,3-b]pyrid-5-yl)oxy)-4-(2-((R)-4-(4-cyclopropylbenzyl)-2-(2-isopropylphenyl)piperazin-1-yl)-7-azaspiro[3.5]non-7-yl)-5-fluoro-N-((4-((((1r, 4r)-4-hydroxy-4-methylcyclohexyl)methyl)amino)-3-nitrophenyl)sulfonyl)benzamide] as the compound, how does the IC50 read?
Its IC50 is less than 10 nM.

How did the IC50 turn out when `CC(C)c1ccccc1[C@@H]1CN(Cc2cnn(C)c2)CCN1C1CC2(CCN(c3cc(Oc4cnc5[nH]ccc5c4)c(C(=O)NS(=O)(=O)c4ccc(NC[C@H]5CC[C@](C)(O)CC5)c([N+](=O)[O-])c4)cc3F)CC2)C1` [compound 229, 2-((1H-pyrrolo[2,3-b]pyrid-5-yl)oxy)-5-fluoro-N-((4-((((1r, 4r)-4-hydroxy-4-methylcyclohexyl)methyl)amino)-3-nitrophenyl)sulfonyl)-4-(2-((R)-2-(2-isopropylphenyl)-4-((1-methyl-1H-pyrazole-4-yl)methyl)piperazin-1-yl)-7-azaspiro[3.5]non-7-yl)benzamide] was run?
Its IC50 is less than 10 nM.
